Results: patent publication US20240327430A1 (Breakpoint Therapeutics GmbH, priority 2023, published 2024)
Where two headings read alike, the source gives them in different places.

Target: truncated Polθ protein (Polθ-Hel containing the helicase domain (67-894)) (Homo sapiens (Human), UniProt O75417)
Test: Polθ ATPase assay (Biological Assay 1, ADP-Glo luminescence)
Format: biochemical
Procedure: The Polθ ATPase assay was used to evaluate inhibitors of Polθ ATPase activity, in vitro. Experiments were performed using a truncated Polθ protein (Polθ-Hel containing the helicase domain (67-894), ATP and a DNA single strand Oligo (5′-CTGTCCTGCATGATG-3′) in the Polθ assay buffer (20 mM Tis-HCl (pH 8.8), MgCl2 5 mM, tween20 0.01%, NP40 0.01%, BSA 0.01%, DTT 1 mM). 2 μL of assay buffer containing Pole-Hel protein (0.5 nM) and DNA substrate (500 nM) was transferred into assay ready plates, containing 0.04 μL of compounds diluted in DMSO. After a 30 minutes incubation at 23° C. in the dark, the reaction was triggered by adding 2 μL of ATP (60 μM), in assay buffer. After 60 minutes at 23° C., 4 μl of ADP-Glo™ Reagent (Glo 1) was added followed by 40 minutes of incubation, then 8 μl of ADP-Glom kinase Detection Reagent (Glo 2) followed by 60 minutes of incubation at 23° C. Luminescence was then measured using Tecan F200 infinite plate reader. Raw data were analysed using GeneData to generate IC50 values.
The Polθ ATPase assay described in Biological Assay 1 above was used to evaluate inhibitors of Polθ ATPase activity for the compounds described in the Experimental Part B above, in vitro.

[1] = Polθ-Hel 0.5 nM, DNA substrate 500 nM, ATP 60 μM, 23° C., read-out: Pole ATPase assay IC50
[2] = Table B, compounds of Experimental Part B, in vitro, read-out: Polθ ATPase assay IC50

truncated Polθ protein (Polθ-Hel containing the helicase domain (67-894)), sequence (O75417 67-894): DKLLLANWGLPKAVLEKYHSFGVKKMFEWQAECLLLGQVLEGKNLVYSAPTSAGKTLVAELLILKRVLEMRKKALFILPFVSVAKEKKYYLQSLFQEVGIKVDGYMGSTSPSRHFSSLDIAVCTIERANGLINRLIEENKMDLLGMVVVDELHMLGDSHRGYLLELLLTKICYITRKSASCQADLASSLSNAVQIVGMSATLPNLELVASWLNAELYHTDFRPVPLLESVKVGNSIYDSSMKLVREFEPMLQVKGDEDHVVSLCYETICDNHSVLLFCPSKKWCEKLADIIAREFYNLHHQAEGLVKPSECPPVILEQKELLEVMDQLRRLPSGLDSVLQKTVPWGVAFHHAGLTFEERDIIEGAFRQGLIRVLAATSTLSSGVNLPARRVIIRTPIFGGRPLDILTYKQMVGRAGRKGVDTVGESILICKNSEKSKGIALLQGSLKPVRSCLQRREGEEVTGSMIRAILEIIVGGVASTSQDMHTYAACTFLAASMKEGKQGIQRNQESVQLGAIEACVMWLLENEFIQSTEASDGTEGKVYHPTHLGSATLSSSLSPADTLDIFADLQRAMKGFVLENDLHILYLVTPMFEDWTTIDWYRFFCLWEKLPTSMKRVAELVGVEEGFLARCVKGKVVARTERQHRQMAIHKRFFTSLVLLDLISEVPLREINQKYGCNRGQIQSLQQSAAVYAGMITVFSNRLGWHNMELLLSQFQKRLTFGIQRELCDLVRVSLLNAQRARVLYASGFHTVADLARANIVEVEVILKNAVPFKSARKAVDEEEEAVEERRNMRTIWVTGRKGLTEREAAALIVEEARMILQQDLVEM

Row | IC50 [1] | IC50 [2] | Compound
1 | – | < 100 nM | COc1cnc(Cl)cc1-c1cc(C)ncc1C(=O)Nc1nc2cc(OCCO)ccc2s1 [Example 124, 2′-chloro-N-[5-(2-hydroxyethoxy)-1,3-benzothiazol-2-yl]-5′-methoxy-6-methyl-[4,4′-bipyridine]-3-carboxamide]
2 | – | < 100 nM | COc1cnc(Cl)cc1-c1cc(C)ncc1C(=O)Nc1nc2c(C)nc(N3CCC(O)CC3)nc2s1 [Example 132, 2′-chloro-N-[5-(4-hydroxypiperidin-1-yl)-7-methyl-[1,3]thiazolo[5,4-d]pyrimidin-2-yl]-5′-methoxy-6-methyl-[4,4′-bipyridine]-3-carboxamide]
3 | < 100 nM | – | COc1cnc(Cl)cc1-c1cc(C)ncc1C(=O)Nc1nc2cnc(N3CC[C@H](O)C3)nc2s1 [Example 23, 2′-chloro-N-{5-[(3S)-3-hydroxypyrrolidin-1-yl]-[1,3]thiazolo[5,4-d]pyrimidin-2-yl}-5′-methoxy-6-methyl-[4,4′-bipyridine]-3-carboxamide]
4 | – | < 100 nM | COc1cnc(Cl)cc1-c1cc(C)ncc1C(=O)Nc1nc2cc(Br)ccc2s1 [Example 103, N-(5-bromo-1,3-benzothiazol-2-yl)-2′-chloro-5′-methoxy-6-methyl-[4,4′-bipyridine]-3-carboxamide]
5 | – | < 100 nM | COc1cnc(Cl)cc1-c1cc(C)ncc1C(=O)Nc1nc2cc(OCCOC(C)=O)ccc2s1 [Example 123, 2-[(2-{2′-chloro-5'-methoxy-6-methyl-[4,4′-bipyridine]-3-amido}-1,3-benzothiazol-5-yl)oxy]ethyl acetate]
6 | < 100 nM | – | COc1cnc(Cl)cc1-c1cc(C)ncc1C(=O)Nc1nc2cnc(C3=CCOCC3)nc2s1 [Example 87, 2′-chloro-N-[5-(3,6-dihydro-2H-pyran-4-yl)-[1,3]thiazolo[5,4-d]pyrimidin-2-yl]-5′-methoxy-6-methyl-[4,4′-bipyridine]-3-carboxamide]
7 | < 100 nM | – | COc1cnc(Cl)cc1-c1cc(C)ncc1C(=O)Nc1nc2ccc(S(C)(=O)=O)cc2s1 [Example 2, 2′-chloro-N-(6-methanesulfonyl-1,3-benzothiazol-2-yl)-5′-methoxy-6-methyl-[4,4′-bipyridine]-3-carboxamide]
8 | – | < 100 nM | COc1cnc(Cl)cc1-c1cc(C)ncc1C(=O)Nc1nc2cnc(NC[C@@H](C)O)nc2s1 [Example 95, 2′-chloro-N-(5-{[(2R)-2-hydroxypropyl]amino}-[1,3]thiazolo[5,4-d]pyrimidin-2-yl)-5′-methoxy-6-methyl-[4,4′-bipyridine]-3-carboxamide]
9 | < 100 nM | – | COc1cnc(Cl)cc1-c1cc(C)ncc1C(=O)Nc1nc2ccc(N3CCNC3=O)cc2s1 [Example 60, 2′-chloro-5′-methoxy-6-methyl-N-[6-(2-oxoimidazolidin-1-yl)-1,3-benzothiazol-2-yl]-[4,4′-bipyridine]-3-carboxamide]
10 | < 100 nM | – | COc1cnc(Cl)cc1-c1cc(C)ncc1C(=O)Nc1nc2cnc(N3CCCC3)nc2s1 [Example 24, 2′-chloro-5′-methoxy-6-methyl-N-[5-(pyrrolidin-1-yl)-[1,3]thiazolo[5,4-d]pyrimidin-2-yl]-[4,4′-bipyridine]-3-carboxamide]
11 | < 100 nM | – | COc1cnc(Cl)cc1-c1cc(C)ncc1C(=O)Nc1nc2cnc(N3CC(OC)C3)nc2s1 [Example 47, 2′-chloro-5′-methoxy-N-[5-(3-methoxyazetidin-1-yl)-[1,3]thiazolo[5,4-d]pyrimidin-2-yl]-6-methyl-[4,4′-bipyridine]-3-carboxamide]

More lines, now with the values behind:

Row | Compound | IC50 [1] | IC50 [2]
12 | COc1cnc(Cl)cc1-c1cc(C)ncc1C(=O)Nc1nc2cnc(NCCO)nc2s1 [Example 46, 2′-chloro-N-{5-[(2-hydroxyethyl)amino]-[1,3]thiazolo[5,4-d]pyrimidin-2-yl}-5′-methoxy-6-methyl-[4,4′-bipyridine]-3-carboxamide] | < 100 nM | –
13 | CCOc1ccc2sc(NC(=O)c3cnc(C)cc3-c3cc(Cl)ncc3OC)nc2c1 [Example 114, 2′-chloro-N-(5-ethoxy-1,3-benzothiazol-2-yl)-5′-methoxy-6-methyl-[4,4′-bipyridine]-3-carboxamide] | – | 100 to 1000 nM
14 | COc1cnc(Cl)cc1-c1cc(C)ncc1C(=O)Nc1nc2cnc(N3CCOC[C@@H]3C)nc2s1 [Example 51, 2′-chloro-5′-methoxy-6-methyl-N-{5-[(3S)-3-methylmorpholin-4-yl]-[1,3]thiazolo[5,4-d]pyrimidin-2-yl}-[4,4′-bipyridine]-3-carboxamide] | < 100 nM | –
15 | COc1cnc(Cl)cc1-c1cc(C)ncc1C(=O)Nc1nc2cc(OCCOC(F)(F)F)ccc2s1 [Example 115, 2′-chloro-5′-methoxy-6-methyl-N-{5-[2-(trifluoromethoxy)ethoxy]-1,3-benzothiazol-2-yl}-[4,4′-bipyridine]-3-carboxamide] | – | 100 to 1000 nM
16 | COc1cnc(Cl)cc1-c1cc(C)ncc1C(=O)Nc1nc2cnc(N3CCOCC3)cc2s1 [Example 65, 2′-chloro-5′-methoxy-6-methyl-N-[6-(morpholin-4-yl)-[1,3]thiazolo[4,5-c]pyridin-2-yl]-[4,4′-bipyridine]-3-carboxamide] | < 100 nM | –
17 | COc1cnc(Cl)cc1-c1cc(C)ncc1C(=O)Nc1nc2ccc(N3CCCCC3=O)cc2s1 [Example 36B, 2′-chloro-5′-methoxy-6-methyl-N-[6-(2-oxopiperidin-1-yl)-1,3-benzothiazol-2-yl]-[4,4′-bipyridine]-3-carboxamide] | < 100 nM | –
18 | COc1cnc(F)cc1-c1cc(C)ncc1C(=O)Nc1nc2cnc(N3CCOCC3)nc2s1 [Example 93, 2′-fluoro-5′-methoxy-6-methyl-N-[5-(morpholin-4-yl)-[1,3]thiazolo[5,4-d]pyrimidin-2-yl]-[4,4′-bipyridine]-3-carboxamide] | < 100 nM | –
19 | COc1cnc(Cl)cc1-c1cc(C)ncc1C(=O)Nc1nc2cnc(NC3CCC(O)CC3)nc2s1 (stereo not drawn) [Example 48, 2′-chloro-N-{5-[(4-hydroxycyclohexyl)amino]-[1,3]thiazolo[5,4-d]pyrimidin-2-yl}-5′-methoxy-6-methyl-[4,4′-bipyridine]-3-carboxamide] | < 100 nM | –
20 | CNC(=O)c1ccc2sc(NC(=O)c3cnc(C)cc3-c3cc(Cl)ncc3OC)nc2c1 [Example 105, 2′-chloro-5′-methoxy-6-methyl-N-[5-(methylcarbamoyl)-1,3-benzothiazol-2-yl]-[4,4′-bipyridine]-3-carboxamide] | – | < 100 nM
21 | COc1cnc(Cl)cc1-c1cc(C)ncc1C(=O)Nc1nc2ccc(N3CCCS3(=O)=O)cc2s1 [Example 84] | < 100 nM | –
22 | COc1cnc(Cl)cc1-c1cc(C)ncc1C(=O)Nc1nc2ccc(NCCCCC(=O)O)nc2s1 [Example 120, 5-[(2-{2′-chloro-5′-methoxy-6-methyl-[4,4′-bipyridine]-3-amido}-[1,3]thiazolo[5,4-b]pyridin-5-yl)amino]pentanoic acid] | – | < 100 nM
23 | COc1cnc(Cl)cc1-c1cc(C)ncc1C(=O)Nc1nc2cnccc2s1 [Example 62, 2′-chloro-5′-methoxy-6-methyl-N-{[1,3]thiazolo[4,5-c]pyridin-2-yl}-[4,4′-bipyridine]-3-carboxamide] | < 100 nM | –
24 | COc1cnc(Cl)cc1-c1cc(C)ncc1C(=O)Nc1nc2cncnc2s1 [Example 42, 2′-chloro-5′-methoxy-6-methyl-N-{[1,3]thiazolo[5,4-d]pyrimidin-2-yl}-[4,4′-bipyridine]-3-carboxamide] | < 100 nM | –
25 | COc1cnc(Cl)cc1-c1cc(C)ncc1C(=O)Nc1nc2cnc(NCC(C)(C)O)nc2s1 [Example 77, 2′-chloro-N-{5-[(2-hydroxy-2-methylpropyl)amino]-[1,3]thiazolo[5,4-d]pyrimidin-2-yl}-5′-methoxy-6-methyl-[4,4′-bipyridine]-3-carboxamide] | < 100 nM | –
26 | COc1cnc(C)cc1-c1cc(C)ncc1C(=O)Nc1nc2cnc(N3CCOCC3)nc2s1 [Example 92, 5′-methoxy-2′,6-dimethyl-N-[5-(morpholin-4-yl)-[1,3]thiazolo[5,4-d]pyrimidin-2-yl]-[4,4′-bipyridine]-3-carboxamide] | < 100 nM | –
27 | COc1cnc(Cl)cc1-c1cc(C)ncc1C(=O)Nc1nc2cc(OC(F)(F)C(=O)N(C)C)ccc2s1 [Example 104, 2′-chloro-N-{5-[(dimethylcarbamoyl)difluoromethoxy]-1,3-benzothiazol-2-yl}-5′-methoxy-6-methyl-[4,4′-bipyridine]-3-carboxamide] | – | < 100 nM
28 | COc1cnc(Cl)cc1-c1cc(C)ncc1C(=O)Nc1nc2cnc(N3CCC(OC)CC3)nc2s1 [Example 80, 2′-chloro-5′-methoxy-N-[5-(4-methoxypiperidin-1-yl)-[1,3]thiazolo[5,4-d]pyrimidin-2-yl]-6-methyl-[4,4′-bipyridine]-3-carboxamide] | < 100 nM | –
29 | COc1cnc(Cl)cc1-c1cc(C)ncc1C(=O)Nc1nc2ccc(N3CCN(C)C3=O)cc2s1 [Example 58, 2′-chloro-5′-methoxy-6-methyl-N-[6-(3-methyl-2-oxoimidazolidin-1-yl)-1,3-benzothiazol-2-yl]-[4,4′-bipyridine]-3-carboxamide] | < 100 nM | –
30 | COc1cnc(Cl)cc1-c1cc(C)ncc1C(=O)Nc1nc2c(OCC(=O)N(C)C)ncnc2s1 [Example 108, 2′-chloro-N-{7-[(dimethylcarbamoyl)methoxy]-[1,3]thiazolo[5,4-d]pyrimidin-2-yl}-5′-methoxy-6-methyl-[4,4′-bipyridine]-3-carboxamide] | – | < 100 nM
